Measured values reported in publication PMC12356538, “Targeting the SARS-CoV‑2 RNA Translation Initiation Element SL1 by Molecules of Low Molecular Weight” (Journal of the American Chemical Society, 2025).
Several values for one entry are separate records, joined by “and”; a condition that tells them apart may be missing. Equal entries are not always repeated. Entries after “also recorded” stand apart in the source; their conditions may differ. Where two headings read alike, the source gives them in different places.

Columns and labels:
[1] = system: SARS-CoV-2 SL1 RNA (SL1 wt); assay type: binding; settings: for wLOGSY factor / T2 reduction [%] / CSP [Hz]: 10 μM SL1 wt, 200 μM ligand; for wLOGSY factor / T2 reduction [%]: pH 6.2; for T2 reduction [%]: CPMG 100 vs 5 ms; for Rank: FBS ranking from summed ranks of CSP, wLOGSY and T2 results; for Rank / Normalized FBS score / 1 - normalized FBS score / FBS score: SL1 wt; for 1 - normalized FBS score: 0 lowest, 1 highest score; for FBS score: radar chart values; for CSP [Hz]: ligand 1H CSP, [RNA]:[ligand] 1:20, pH 6.2
[2] = system: SL1 Δbulge RNA; assay type: binding, SARS-CoV-2
[3] = biological target: SL1 wt RNA; experiment: NMR-based KD estimation, ligand-detected 1D-1H titration; assay type: binding, SARS-CoV-2
[4] = system: SL1 RNA; experiment: RNA-detected NMR binding site mapping (2D-1H,1H-TOCSY and 1D-1H); design: species or system SARS-CoV-2; settings: for 1H CSPs [ppm] A12H2 / 1H CSPs [ppm] A29H2: RNA-detected 1D-1H
[5] = system: SL1 (wt)-Nanoluciferase mRNA; assay type: biochemical, SARS-CoV-2
[6] = system: SL1 Δbulge-Nanoluciferase mRNA; assay type: biochemical, SARS-CoV-2
[7] = system: β-Globin-Nanoluciferase mRNA; experiment: Cell-free translation assay in rabbit reticulocyte lysate, Nanoluciferase readout; assay type: biochemical; settings: 0.2 μM mRNA, 2 μM compound
[8] = system: SL1 RNA labeled with 2AP at position A27; experiment: 2-Aminopurine fluorescence binding assay; design: species or system SARS-CoV-2; settings: 0.5 μM 2AP-SL1, compound 0-400 μM, 25 °C, pH 6.2
[9] = pH 6.2
[10] = Suppl. Table 7, ligand constant at 100, SL1 wt RNA concentration 0-250, read-out: KDest
[11] = 2D TOCSY, RNA 150 μM, compound 1 mM, 298 K

SMILES | wLOGSY factor [1] | T2 reduction [%] [1] [%] | Rank [1] | Normalized FBS score [1] | 1 - normalized FBS score [1] | FBS score [1] | CSP [Hz] [1] [Hz] | Kd [3, 10] [µM] | 1H,1H CSPs [ppm] C16H5-H6 [4, 11] [ppm] | 1H,1H CSPs [ppm] C19H5-H6 [4, 11] [ppm] | 1H,1H CSPs [ppm] C20H5-H6 [4, 11] [ppm] | 1H,1H CSPs [ppm] C21H5-H6 [4, 11] [ppm] | 1H,1H CSPs [ppm] C28H5-H6 [4, 11] [ppm] | 1H,1H CSPs [ppm] C33H5-H6 [4, 11] [ppm] | 1H,1H CSPs [ppm] C34H5-H6 [4, 11] [ppm] | 1H,1H CSPs [ppm] U9H5-H6 [4, 11] [ppm] | 1H,1H CSPs [ppm] U10H5-H6 [4, 11] [ppm] | 1H,1H CSPs [ppm] U11H5-H6 [4, 11] [ppm] | 1H,1H CSPs [ppm] U13H5-H6 [4, 11] [ppm] | 1H,1H CSPs [ppm] U17H5-H6 [4, 11] [ppm] | further results
COc1ccc2nc(NC(=O)CN(C)C)sc2c1 [A.2] | 0.72 | 79.26 | 30 | 0.81 | 0.19 | 30 | 12.23 | 144 | 0.0166 | 0.0190 | 0.0143 | 0.0230 | 0.0813 | 0.0085 | 0.0081 | 0.0247 | 0.0231 | 0.0462 | 0.0110 | 0.0143 | CSP [Hz] [2]: 5.52 Hz; Normalized abs. CSP SL1 wt - CSP SL1 Δbulge (normalized selectivity score) [2]: 1.00; Rank [2]: 5; T2 reduction [%] [2]: 67.46%; abs. CSP SL1 wt - CSP SL1 Δbulge [2]: 6.71; wLOGSY factor [2]: 0.00; Kd ([3]; ligand 100 μM, SL1 RNA 0 to 200 or 250 μM, 298 K, 600 MHz, pH 6.2, read-out: KD est): 144 ± 31 µM; binding site / selectivity for the bulge from CSP and LB mapping, in words [4]: bound the bulge less selectively; 1H,1H CSPs [ppm] U18H5-H6 [4, 11]: 0.0071 ppm; 1H,1H CSPs [ppm] U25H5-H6 [4, 11]: 0.0361 ppm; 1H CSPs [ppm] A12H2 [4]: 0.1420 ppm; 1H CSPs [ppm] A29H2 [4]: 0.0190 ppm; Normalized inhibition rate (normalized activity score) [5]: 0.73; SL1 wt inhibition rate [%] [5]: 36.23%; effect on translation of SL1 wt mRNA, in words [5]: significant and selective inhibition; also recorded: highest inhibition efficiency; time-resolved SL1-driven translation, in words [5]: more subtle temporal effects; effect on translation of SL1 Δbulge mRNA, in words [6]: increased translation efficiency; also recorded: about half as pronounced as that for SL1 wt; effect on translation of β-globin mRNA, in words [7]: increased translation efficiency; also recorded: boost; affinity trend compared to lead A [8]: increased affinity; solubility, in words [9]: increased solubility
CNC(=O)Nc1nc2c(O)cc(O)cc2s1 [A.13] | 0.33 | 100.00 | 25 | 0.68 | 0.32 | 25 | 4.11 | 312 | 0.0032 | 0.0022 | 0.0022 | 0.0045 | 0.0278 | 0.0032 | 0.0087 | 0.0067 | 0.0112 | 0.0702 | 0.0209 | 0.0051 | FBS result (CSP, wLOGSY, T2 reduction) in words [2]: severe line broadening; signal disappearance; also recorded: complete loss of ligand peaks; 1H,1H CSPs [ppm] C15H5-H6 [4, 11]: 0.0030 ppm; 1H,1H CSPs [ppm] C32H5-H6 [4, 11]: 0.0082 ppm; 1H,1H CSPs [ppm] U18H5-H6 [4, 11]: 0.0022 ppm; 1H,1H CSPs [ppm] U25H5-H6 [4, 11]: 0.0020 ppm; 1H CSPs [ppm] A12H2 [4]: 0.0630 ppm; 1H CSPs [ppm] A29H2 [4]: 0.0190 ppm; Normalized inhibition rate (normalized activity score) [5]: 1.00; SL1 wt inhibition rate [%] [5]: 49.50% and ~50%; effect on translation of SL1 wt mRNA, in words [5]: significant and selective inhibition; also recorded: highest inhibition efficiency; also recorded: greatest translation inhibition; time-resolved SL1-driven translation, in words [5]: most pronounced delay and suppression; inhibition rate [6]: ~0.5%; inhibition rate ([7]; relative to untreated control): ~10%; affinity trend compared to lead A [8]: increased affinity
